IC50 data for six compounds are collected here from PMC8791944, “GLUT3 inhibitor discovery through in silico ligand screening and in vivo validation in eukaryotic expression systems” (Scientific Reports, 2022).

In the test the target is T1, GLUT3 (Homo sapiens, UniProt P11169).
T1 construct: expressed in transfected cells; host or cells: Saccharomyces cerevisiae hxt0 strain EBY.S7 (fgy1)
T1 sequence (P11169 1-496): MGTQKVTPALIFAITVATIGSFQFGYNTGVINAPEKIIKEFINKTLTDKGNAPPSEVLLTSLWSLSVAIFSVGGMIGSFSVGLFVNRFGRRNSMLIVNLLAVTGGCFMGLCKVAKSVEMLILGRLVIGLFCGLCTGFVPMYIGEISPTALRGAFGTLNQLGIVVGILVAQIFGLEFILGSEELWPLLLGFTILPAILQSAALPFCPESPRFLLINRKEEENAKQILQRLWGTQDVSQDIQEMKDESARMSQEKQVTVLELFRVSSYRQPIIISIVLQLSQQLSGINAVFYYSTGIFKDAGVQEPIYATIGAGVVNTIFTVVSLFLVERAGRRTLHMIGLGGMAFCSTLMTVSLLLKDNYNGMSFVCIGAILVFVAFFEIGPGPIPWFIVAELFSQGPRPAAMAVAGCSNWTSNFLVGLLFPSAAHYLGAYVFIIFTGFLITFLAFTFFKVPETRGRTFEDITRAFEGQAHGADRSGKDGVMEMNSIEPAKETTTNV
Kind of test: Glucose transport assay, wild-type GLUT3 expressed in hxt^0 yeast cells EBY.S7 (C^14-glucose uptake). It is filed as cell-based. Particulars: wild-type GLUT3 in hxt^0 yeast cells, 3 mM glucose, uptake 10 min; read-out: IC50 for GLUT3 transport inhibition. An excerpt:
To experimentally validate the ligand candidates determined by the virtual ligand screening, we tested their effect on GLUT3 transport activity. For this, we used the recently established assay system[67] in which GLUT3 is expressed in a yeast strain devoid of endogenous hexose transporters (hxt^0) so that glucose uptake into cells relies solely on the activity of GLUT3.
We determined GLUT3 transport activity by measuring the accumulation of radioactive glucose inside whole hxt^0 yeast cells (see “Materials and methods” for details). To select an appropriate substrate concentration for transport inhibition screening, we assessed the KM of glucose for GLUT3 in hxt^0 cells. […] Indeed, functional expression of human GLUTs in hxt^0 cells often requires mutations in genes related to yeast lipid composition[65],[73] as well as single-site mutations that may favor the outward-facing conformation of the transporters[65]–[67].
Hexose transporter deficient yeast strains (hxt^0) EBY.VW4000 for expression of GLUT5, EBY.S7 (carrying the fgy1 mutation) for expression of GLUT1-3, and SDY.022 (EBY.S7 Δerg4) for expression of GLUT4 cells, and corresponding plasmids[65],[66],[73] were from the labs of Drs. Eckhard Boles and Mislav Oreb (Goethe University, Germany). Media ingredients and buffer components were from VWR or Millipore Sigma. Commercial providers for chemicals tested for GLUT3 inhibition are listed in Supplementary Table S1. C^14-glucose was from Moravek Inc (Brea, CA, USA). Cancer cell lines were from ATCC (https://www.atcc.org).
The plasmids containing functional constructs of GLUT1-5 were transformed in the corresponding hxt^0 strains[65],[66],[73] (EBY.VW4000 for GLUT5S72Y, EBY.S7 for GLUT1, GLUT2∆loopS_Q455R, GLUT3 and GLUT3S66Y, and SDY.022 for GLUT4) and grown on 2% (w/v) agar plates of the respective media supplemented with 1% (w/v) maltose. An initial culture of ~ 10 ml was started with a few colonies and grown for 2–3 days if the media was SC-uracil with 1% (w/v) maltose (GLUT1, GLUT3, GLUT4) or 1–2 days if the media was YEP with 1% (w/v) maltose and 100 µg/ml geneticin G418 (GLUT2∆loopS_Q455R and GLUT5S72Y). Cells were washed once in the corresponding media in which maltose was substituted with 0.1–2% hexose substrate for the expressing GLUT (i.e., SC-uracil, 2% (w/v) glucose for GLUT1; SC-uracil, 0.2% (w/v/) glucose for GLUT3 and GLUT4; YEP, 0.2% (w/v) glucose, 100 µg/ml geneticin G418 for GLUT2∆loopS_Q455R, and YEP, 2% (w/v) fructose for GLUT5 S72Y). Then, cells were transferred in the same media so that OD600nm ~ 0.5 and grown further for 1–2 days.
For transport activity assay, cells in the hexose media were centrifuged (1000×g, 5 min, room temperature), washed once with PBS buffer (10 mM Na2HPO4, 1.8 mM KH2PO4, 2.7 mM KCl, 137 mM NaCl, pH 7.4), and resuspended in PBS buffer at an OD600nm ~ 10; each assay contained 100 µl of this cell solution. Transport activity assay was started by adding C^14-hexose at a substrate concentration corresponding to the respective KM (5 mM glucose for GLUT1 or GLUT4, 3 mM glucose for GLUT3 or 1.5 mM glucose for GLUT3S66Y, 15 mM glucose for GLUT2∆loopS_Q455R, and 10 mM fructose for GLUT5S72Y); for determining the glucose KM in GLUT3 and GLUT3S66Y, substrate concentrations were varied accordingly. […] The filtration membranes were transferred into scintillation vials with 10 ml of Scintillation Solution (BioSafeII; Research Products International, Mount Prospect, IL, USA), and vortexed briefly. The radioactivity was determined with a scintillation counter (Tri-carb 2900TR, Perkin Elmer, USA).
In the case of `Cc1cccnc1OC1CCN(c2cc(N3CCCC3CO)ncn2)CC1` (stereo not drawn) [G3iC], the IC50 stood at 12.5 ± 4.4 µM.

Turning to `O=C(Nc1cccc(Cl)c1)c1cccc(NC(=O)c2cccc([N+](=O)[O-])c2)c1` [G3iE, N-{3-[(3-chloroanilino)carbonyl]phenyl}-3-nitrobenzamide], the IC50 came to 23.6 ± 1.9 µM.

Regarding `Cc1cc(NC(=O)CCC2Cc3ccccc3NC2=O)nc(-c2ccccc2)n1` (stereo not drawn) [G3iD], the IC50 worked out at 19.3 ± 4.7 µM.

In the case of `COc1ccccc1-n1c(/C=C/c2ccc(O)cc2)nc2ccc(Br)cc2c1=O` [G3iB, 6-bromo-2-[(E)-2-(4-hydroxyphenyl)ethenyl]-3-(2-methoxyphenyl)quinazolin-4(3H)-one], the half-inhibitory concentration (IC50) stood at 12.2 ± 4 µM.

In the case of `CC(=O)Nc1ccc(S(=O)(=O)Nc2ccc(Nc3cc(N(C)C)nc(C)n3)cc2)cc1` [G3iA, N-(4-{[(4-{[6-(dimethylamino)-2-methylpyrimidin-4-yl]amino}phenyl)amino]sulfonyl}phenyl)acetamide], the IC50 turned out to be 7.01 ± 1.02 µM.

On to `Cc1ccccc1CN(Cc1nnc(C(C)(C)C)o1)c1ccc2nc(O)[nH]c2c1` [G3iF], for which the concentration for half-maximal inhibition (IC50) came out at 38.4 ± 11.8 µM.

One may read the IC50 as the concentration that inhibits the measured activity by half.
